Assay results: patent publication US7351389B2, “Aminocarboxylate ligands having substituted aromatic amide moieties” (Bracco International B.V., priority 1991, dated 2008)

Legend:
[1] = chelating a paramagnetic ion, e.g., Gd; cited from earlier work
[2] = chelating a paramagnetic ion, e.g., Gd; cited from earlier work; remark: listed apart in the source
[3] = T1 relaxivity of gadolinium complexes (IBM Minispec spin analyzer); type: physicochemical; conditions: Gd(L) complex, 20 MHz, 39±1° C.; for T1 Relaxivity: aqueous solutions, 0.1-5 mM Gd
Method: The T1 relaxivity was measured for nine prior art gadolinium complexes (1-9) as compared to novel gadolinium complexes using the ligands of Examples 1, 2 and 3 (#10, 11 and 12, respectively, in the Table below). Relaxivity was measured on an IBM Minispec spin analyzer operating at 20 MHz and 39±1° C. Aqueous solutions were used in 0.1-5 mM Gd concentration range.

Compound | relaxivity [1] | water solubility [2] | relaxivity (comparison in words of Table 1) [3] | T1 Relaxivity [3]
O=C(O)CN1CCN(CC(=O)O)CCN(CC(=O)Nc2ccccc2)CCN(CC(=O)O)CC1 | acceptable relaxivity | poor water solubility |  | 
10-[2-[[3,5-Bis[[(2,3-dihydroxypropyl)amino]-carbonyl]phenyl]amino]-2-oxoethyl]-1,4,7,10-tetraazacyclododecane-1,4,7-triacetic acid, monogadolinium complex [HAA-DO3A] |  |  | especially high | 5.8 mM⁻¹ s⁻¹
10-[2-[[3,5-Bis[[(2-methylbutyl)amino]carbonyl]-phenyl]amino]2-oxoethyl]1,4,7,10-tetraazacyclododecane-1,4,7-triacetic acid, monogadolinium complex [AAA-DO3A] |  |  | especially high | 5.9 mM⁻¹ s⁻¹
O=C(O)CN(CCN(CC(=O)O)CC(=O)O)CCN(CC(=O)O)CC(=O)O (Gd complex, metal not drawn) [DTPA, diethylenetriaminepentaacetic acid, reference compound] |  |  |  | 3.7 mM⁻¹ s⁻¹
O=C(O)CN(CCN(CC(=O)O)C(=O)NCC(O)CO)CCN(CC(=O)O)C(=O)NCC(O)CO (centres unmarked) (Gd complex, metal not drawn) [DTPA-HA, reference compound] |  |  |  | 4.4 mM⁻¹ s⁻¹
O=C(O)CN1CCN(CC(=O)O)CCN(CC(=O)O)CCN(CC(=O)O)CC1 [DOTA, reference compound] |  |  |  | 3.4 mM⁻¹ s⁻¹
O=C(O)CN1CCN(CC(=O)O)CCN(CC(=O)Nc2cc(C(=O)NC(CO)CO)cc(C(=O)NC(CO)CO)c2)CCN(CC(=O)O)CC1 [HAS-DO3A] |  |  | especially high | 5.4 mM⁻¹ s⁻¹
